US20260258084A1, “New Peptides as Selective IL-23 Receptor Antagonists” (Sanofi, priority 2022, published 2026)
Starred links: 1 amine or outer side, 2 acyl side, 3 side chain; linkers in the order of their positions; H or OH if unused. Positions of bridges follow the written chain, without caps; N, C: chain ends. Non-standard residues stand in square brackets, D forms with d. Residues, ends and D or L forms follow the SMILES beside them. *: point of attachment. X6 = O=C(CCC(=O)[*:3])N[C@@H](CS[*:2])C(=O)[*:1]; Trp(7-Me) = Cc1cccc2c(C[C@H](N)C(=O)O)c[nH]c12; X1 = O=C(CCCCN[*:3])N[C@@H](CS[*:2])C(=O)[*:1]; Trp(1-Me) = Cn1cc(C[C@H](N)C(=O)O)c2ccccc21; 2Nal = N[C@@H](Cc1ccc2ccccc2c1)C(=O)O; AEF = NCCOc1ccc(C[C@H](N)C(=O)O)cc1; Palmitoyl = CCCCCCCCCCCCCCCC(=O)*; 3Pal = N[C@@H](Cc1cccnc1)C(=O)O; Lys(Me) = CNCCCC[C@H](N)C(=O)O; αMeL = CC(C)C[C@](C)(N)C(=O)O; Suc = O=C(CCC(=O)[*:2])[*:1]; αMeK = C[C@](N)(CCCCN)C(=O)O; Thp = NC1(C(=O)O)CCOCC1; Me2NCH2CH2 = CN(C)CC*; Aib = CC(C)(N)C(=O)O; Ahx = NCCCCCC(=O)O; Ava = NCCCCC(=O)O; Sar = CNCC(=O)O

Legend:
Pepsin = tested on: T1, Pepsin; assay: Protease stability in simulated gastric fluid (Pepsin-SGF, FaSSGF); assay type: in vitro ADME; details: simulated gastric fluid with pepsin (Pepsin-SGF), 60 min, 1 μM peptide, 37° C., read-out: FaSSGF 60 (min), remaining percent of peptide
T1 construct: purchased Merck Millipore
Procedure, shortened: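 LCMS/MS peak areas, normalised to the time-0 sample as 100%, give percent remaining. Conditions: 37° C incubation of 1 μM final peptide in simulated gastric fluid with pepsin; ethanol/0.1% HCOOH quench at 0, 60, 120, 240 min.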

[1] = target: T2, human interleukin-23 receptor (recombinant human IL-23R-Fc chimera) (Homo sapiens, UniProt Q5VWK5); assay: Human ELISA IL23/IL23R (assay for specific human IL23R antagonists); assay type: binding; details: Table 10; read-out: Human ELISA IL23/IL23R IC50
T2 construct: Fc (IgG Fc fusion)
Procedure, shortened: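 Competition format: peptide dilutions compete for IL23R-Fc chimera (0.1 μg/ml final, 60 min, room temperature) binding to immobilized human IL23 coated at […] overnight at 4 °C. Read-out is fluorogenic HRP signal from goat anti-hu-IgG1 detecting captured receptor.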

Pancreatin = assay: Protease stability in simulated intestinal fluid (Pancreatin-SIF, FaSSIF); assay type: in vitro ADME; details: 1 μM peptide, 37° C.; for remaining at 1 h, 1 µM: 60 min, read-out: FaSSIF 60 (min), remaining percent of peptide; for remaining at 2 h, 1 µM: 120 min, read-out: FaSSIF 120 (min), remaining percent of peptide; for remaining at 4 h, 1 µM: 240 min, read-out: FaSSIF 240 (min), remaining percent of peptide
Procedure, shortened: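 LC-MS/MS peak areas at 0, 60, 120 and 240 min, normalised to time 0 as 100%, give percent remaining. Reactions used 1 μM final peptide at 37° C in pancreatin-SIF (1 mg pancreatin in 10 mL SIF concentrate) and were stopped with ethanol containing 0.1% HCOOH.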

[2] = tested on: IL-23 induced STAT3 signaling in HEK-Blue™ IL-23 cells; assay: IL-23 induced STAT3 signaling in HEK-Blue IL-23 cells (SEAP reporter); assay type: cell-based; details: human IL23 0.25 ng/ml, read-out: pSTAT3
Procedure, shortened: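 Secreted SEAP, read at OD 620-655 nm after 45 min QUANTI-Blue development, reports STAT3 activation. Beforehand, cells were exposed to peptide dilutions for 60 min at 37 °C and then to 0.25 ng/ml final human IL-23 overnight, at 10,000 cells/well.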

| SMILES | remaining at 1 h, 1 µM (Pepsin) [%] | IC50 [1] [pM] | remaining at 1 h, 1 µM (Pancreatin) [%] | remaining at 2 h, 1 µM (Pancreatin) [%] | remaining at 4 h, 1 µM (Pancreatin) [%] | IC50 [2] [pM] |
| --- | --- | --- | --- | --- | --- | --- |
| COc1ccc(C[C@@H]2NC(=O)[C@@H]3CSSC[C@H](NC(=O)CCCCCNC(=O)C[C@@H](C(=O)N[C@@H](CC(N)=O)C(=O)N[C@@H](CC(N)=O)C(N)=O)NC(=O)C(C)(C)NC(=O)[C@H](Cc4ccc5ccccc5c4)NC2=O)C(=O)N[C@@H](CC(N)=O)C(=O)N[C@@H]([C@@H](C)O)C(=O)N[C@@H](Cc2c[nH]c4ccccc24)C(=O)N[C@@H](CCC(N)=O)C(=O)N3)cc1 [compound 3] ([Ahx]CNTWQCY(Me)[2Nal][Aib]DNN-NH2; disulfide 2-7; lactam N-11) | 1 | 700 | 76 | 64 | 38 | 17200 |
| CCCCCCCCCCCCCCCC(=O)NCCCC[C@]1(C)NC(=O)[C@H](Cc2ccc3ccccc3c2)NC(=O)[C@H](Cc2ccc(OCCN(C)C)cc2)NC(=O)[C@@H]2CSSC[C@H](NC(=O)CCCCNC(=O)CC[C@@H](C(=O)N[C@@H](CC(N)=O)C(=O)N[C@@H](Cc3cccnc3)C(=O)N(C)CC(N)=O)NC1=O)C(=O)NCCCC[C@H](NC(C)=O)C(=O)N[C@@H](Cc1c[nH]c3c(C)cccc13)C(=O)N[C@@H](CCCCNC(C)=O)C(=O)N2 [compound 67] (Ac-K[Trp(7-Me)]K(Ac)CY(Me2NCH2CH2)[2Nal][αMeK](Palmitoyl)EN[3Pal][Sar]-NH2; linker 1-4-8 via X1) | 102 | 2270 | 99 | 98 | 98 | 22600 |
| C[C@@H](O)[C@@H]1NC(=O)[C@H](CC(N)=O)NC(=O)[C@@H]2CSSC[C@H](NC(=O)[C@H](CCC(N)=O)NC(=O)[C@H](Cc3c[nH]c4ccccc34)NC1=O)C(=O)N[C@@H](Cc1ccc(OCCN(C)C)cc1)C(=O)N[C@@H](Cc1ccc3ccccc3c1)C(=O)NC1(CCOCC1)C(=O)N[C@H](C(=O)N[C@@H](CC(N)=O)C(=O)N[C@@H](CC(N)=O)C(N)=O)CCC(=O)NCCCCC(=O)N2 [compound 26] ([Ava]CNTWQCY(Me2NCH2CH2)[2Nal][Thp]ENN-NH2; disulfide 2-7; lactam N-11) | 95 | 290 | 95 | 95 | 94 | 3370 |
| CC(=O)NCCCC[C@@H]1NC(=O)[C@H](Cc2cn(C)c3ccccc23)NC(=O)[C@@H](NC(C)=O)CCCCNC(=O)[C@@H]2CSSC[C@H](NC1=O)C(=O)N[C@@H](Cc1ccc(OCCN(C)C)cc1)C(=O)N[C@@H](Cc1ccc3ccccc3c1)C(=O)NC1(CCOCC1)C(=O)N[C@H](C(=O)N[C@@H](CC(N)=O)C(=O)N[C@@H](Cc1cccnc1)C(=O)N(C)CC(N)=O)CCC(=O)NCCCCC(=O)N2 [compound 126] (Ac-K[Trp(1-Me)]K(Ac)CY(Me2NCH2CH2)[2Nal][Thp]EN[3Pal][Sar]-NH2; linker 1-4-8 via X1) | 80 | 560 | 90 | 87 | 83 | 110 |
| C[C@H](NC(=O)[C@@H]1CC(=O)NCCCCCC(=O)N[C@H]2CSSC[C@H](NC(=O)[C@H](CCC(N)=O)NC(=O)[C@H](Cc3c[nH]c4ccccc34)NC(=O)CCCCNC2=O)C(=O)N[C@@H](Cc2ccc(OCCN)cc2)C(=O)N[C@@H](Cc2ccc3ccccc3c2)C(=O)NC(C)(C)C(=O)N1)C(=O)NCC(N)=O [compound 53] ([Ahx]C[Ava]WQC[AEF][2Nal][Aib]DAG-NH2; disulfide 2-6; lactam N-10) | 0 | 700 | 95 | 89 | 75 | 60800 |

Further lines, with some results ahead:

| remaining at 1 h, 1 µM (Pepsin) [%] | IC50 [1] [pM] | remaining at 1 h, 1 µM (Pancreatin) [%] | remaining at 2 h, 1 µM (Pancreatin) [%] | remaining at 4 h, 1 µM (Pancreatin) [%] | SMILES | IC50 [2] [pM] |
| --- | --- | --- | --- | --- | --- | --- |
| 86 | 360 | 100 | 96 | 84 | CC[C@H](C)[C@H](NC(=O)[C@H](CC(N)=O)NC(=O)[C@H](CC(N)=O)NC(=O)[C@@H]1CCC(=O)NCCCCC(=O)N[C@H]2CSSC[C@H](NC(=O)[C@H](CCCCNC(C)=O)NC(=O)[C@H](Cc3c[nH]c4ccccc34)NC(=O)[C@H]([C@@H](C)O)NC(=O)[C@H](CC(N)=O)NC2=O)C(=O)N[C@@H](Cc2ccc(OCCN(C)C)cc2)C(=O)N[C@@H](Cc2ccc3ccccc3c2)C(=O)NC(C)(C)C(=O)N1)C(N)=O [compound 38] ([Ava]CNTWK(Ac)CY(Me2NCH2CH2)[2Nal][Aib]ENNI-NH2; disulfide 2-7; lactam N-11) | 11900 |
| 39 | 1480 | 91 | 91 | 86 | CC(=O)N[C@H]1CCCCNC(=O)[C@@H]2CSSC[C@H](NC(=O)[C@H](CC(C)C)NC(=O)[C@H](Cc3c[nH]c4c(C)cccc34)NC1=O)C(=O)N[C@@H](Cc1ccc(OCCN(C)C)cc1)C(=O)N[C@@H](Cc1ccc3ccccc3c1)C(=O)N[C@@](C)(CC(C)C)C(=O)N[C@H](C(=O)N[C@@H](CC(N)=O)C(=O)N[C@@H](Cc1cccnc1)C(=O)N(C)CC(N)=O)CCCCN(C)C(=O)CCC(=O)N2 [compound 68] (Ac-K[Trp(7-Me)]LCY(Me2NCH2CH2)[2Nal][αMeL][Lys(Me)]N[3Pal][Sar]-NH2; linker 1-4-8 via X6) | 2690 |
| 100 | 350 | 95 | 87 | 84 | Cc1cccc2c(C[C@@H]3NC(=O)[C@H]([C@@H](C)O)NC(=O)[C@H](CC(N)=O)NC(=O)[C@@H]4CSSC[C@H](NC(=O)[C@H](CCC(N)=O)NC3=O)C(=O)N[C@@H](Cc3ccc(OCCN(C)C)cc3)C(=O)N[C@@H](Cc3ccc5ccccc5c3)C(=O)NC(C)(C)C(=O)N[C@H](C(=O)N[C@@H](CC(N)=O)C(=O)N[C@@H](Cc3cccnc3)C(=O)N(C)CC(N)=O)CCC(=O)NCCCCC(=O)N4)c[nH]c12 [compound 62] ([Ava]CNT[Trp(7-Me)]QCY(Me2NCH2CH2)[2Nal][Aib]EN[3Pal][Sar]-NH2; disulfide 2-7; lactam N-11) | 200 |
| 97 | 300 | 82 | 77 | 74 | CC(=O)NCCCC[C@@H]1NC(=O)[C@H](Cc2c[nH]c3c(C)cccc23)NC(=O)[C@H]([C@@H](C)O)NC(=O)[C@H](CC(N)=O)NC(=O)[C@@H]2CSSC[C@H](NC1=O)C(=O)N[C@@H](Cc1ccc(OCCN(C)C)cc1)C(=O)N[C@@H](Cc1ccc3ccccc3c1)C(=O)NC1(CCOCC1)C(=O)N[C@H](C(=O)N[C@@H](CC(N)=O)C(=O)N[C@@H](Cc1cccnc1)C(=O)N(C)CC(N)=O)CCCCNC(=O)CCC(=O)N2 [compound 102] (CNT[Trp(7-Me)]K(Ac)CY(Me2NCH2CH2)[2Nal][Thp]KN[3Pal][Sar]-NH2; disulfide 1-6; linker N-10 via Suc) | 90 |
| 99 | 360 | 83 | 72 | 55 | CC(=O)N[C@H]1CCCCNC(=O)[C@@H]2CSSC[C@H](NC(=O)[C@H](CCC(N)=O)NC(=O)[C@H](Cc3c[nH]c4ccccc34)NC1=O)C(=O)N[C@@H](Cc1ccc(OCCN(C)C)cc1)C(=O)N[C@@H](Cc1ccc3ccccc3c1)C(=O)N[C@@](C)(CC(C)C)C(=O)N[C@H](C(=O)N[C@@H](CC(N)=O)C(=O)NCC(N)=O)CCC(=O)NCCCCC(=O)N2 [compound 31] (Ac-KWQCY(Me2NCH2CH2)[2Nal][αMeL]ENG-NH2; linker 1-4-8 via X1) | 5230 |
